Values quoted from earlier work as cited in US8791105B2, “Methods for alleviating chronic pain and improving performance of cattle undergoing dehorning or castration” (Kansas State University Research Foundation, priority 2010, dated 2014).

What was measured:
[1] = plasma; humans; cited from earlier work
[2] = in vivo; cited from earlier work

| Compound | reported minimum effective concentration [1] | plasma half-life previously reported [2] |
| --- | --- | --- |
| 1-(aminomethyl) cyclohexane acetic acid [gabapentin] | 2 µg/mL | – |
| O=C(O)c1ccccc1O [salicylate] | – | 30 min |
